For one data set, the system named is CD8^+ T-cells. As to conditions: log-fold change, cited from earlier work.
Data set [1] concerns antigen-specific T-cell clone. As to conditions: peptide pool, response attributed to the dominant epitope, cited from earlier work.
Data set [2] has as its system peritoneal tumour biopsies. In words: Transcriptome analysis of the Murcia patient's peritoneal tumour biopsies. As to conditions: target of 2nd generation personalized vaccines.
Excerpt: All the putative 8-20 amino acids long epitopes were created from these proteins and used for designing the 2nd generation of personalized vaccines according to the invention. […] These antigens have different length and amino acid sequences. All selected peptide antigen contains multiple highly ranked epitopes (13-66) presented on the cell surface by the patient's HLA class I and class II molecules. The range of the potency score is indicated for the selected epitopes. Epitopes presented by the patient's HLA class I and class II molecules are indicated to induce CD8 and CD4 responses, respectively. As described in the invention, the potency of each epitope in the vaccines was calculated and indicated to inform the physician about the predicted efficacy of the personalised vaccines in the recipient.
Data set [3] relates to peripheral mononuclear cells. The data set is described as follows: ELISPOT of T-cell responses to vaccine peptides after 1st immunization of the breast cancer patient. In kind it is in vivo, human. The note with it: after the 1st immunization; for ELISpot: 5 days culture of PBMC from the patient. From the text:
In the prior art, HLA-binding based epitope selection methods have been used for vaccine development. The epitopes in the personal vaccines made for the breast cancer patient were selected to bind at least 3 HLAs of the subject as described in the published US patent application 2018/264094. […] The potency of T-cell responses against the tumor antigens were predicted by the system described above (using HLA class I EWS, HLA class II EWS and overall EWS). The potency of T-cell responses to the vaccine peptides after the 1st immunization were measured with ELISPOT assay after 5 days culture of the peripheral mononuclear cells isolated from a blood sample of the patient (Spots/10^6 PBMC).

Another data set relates to HeLa cells. In words: Cellular uptake of fluorescent-labeled peptide vaccines, flow cytometry. The note with it: for cells taking up the vaccine: 40 μM, within 30 minutes; for cellular uptake (intensity of fluorescence) compared to control: flow cytometry, control without R8. In kind it is cell-based, human. As to the method:
(§1) Methods: HeLa cells were seeded at a density of 200,000 cells per well in 6-well plates and allowed to grow for one day. On the second day, the cells were treated with the peptides at three different concentrations (2.5 μM, 10 μM, and 40 μM) for two different incubation times (15 minutes and 30 minutes). After the treatment, the cells were detached using trypsin, washed, and resuspended in PBS. The cells were then analyzed using a FACS Canto flow cytometer. A total of 30,000 events were acquired, and the percentage of fluorescent cells and fluorescent intensity (geometric mean and median) were determined through flow analysis.
as §1, with “Methods” for “Methods:”

Where [4] appears, read: ABF cohort individual BC10, Healthy.
Where [5] appears, read: ABF cohort individual AP0201, Hospitalized.
[6] abbreviates: Subject 1327414, cohort Healthy.
[7] abbreviates: Subject 1005699, cohort COVID-19-Acute.

Read-outs that look alike come from different tables or passages of the source.

In the case of “AADLDDFSKQL [SARS-COV-2 peptide of the ABF cohort data]”, in the data set on CD8^+ T-cells (setting [4]), the LFC is recorded as 0. “ADLDDFSKQL [SARS-COV-2 peptide of the ABF cohort data]”: the LFC with CD8^+ T-cells (setting [5]) is reported as 0.

Take “AFPFTIYSL [SARS-COV-2 peptide of the ABF cohort data]”: the LFC in the data set on CD8^+ T-cells (setting [5]) is 0. “AHAEETRKL [SARS-COV-2 peptide of the ABF cohort data]”: in the data set on CD8^+ T-cells (setting [5]), the LFC is recorded as 0.

AIMTRCLAV: the Hits in data set [1] (setting [6]) is on record as 1. As to “ALLADKFPVL [SARS-COV-2 peptide of the ABF cohort data]”, the LFC in the data set on CD8^+ T-cells (setting [5]) and in the data set on CD8^+ T-cells (setting [4]) was 0 throughout.

Regarding “ALLAVFQSA [SARS-COV-2 peptide of the ABF cohort data]”, in the data set on CD8^+ T-cells (setting [4]), the LFC was 0. As to ALNTLVKQL, in data set [1] (setting [6]), the Hits was 1. Turning to “ALQDAYYRA [SARS-COV-2 peptide of the ABF cohort data]”, the LFC with CD8^+ T-cells (setting [4]) is listed as 0. For the molecule “ALRKVPTDNY [SARS-COV-2 peptide of the ABF cohort data]”, in the data set with CD8^+ T-cells (setting [4]), the LFC is 0. Take “ALTCFSTQF [SARS-COV-2 peptide of the ABF cohort data]”: the LFC in the data set on CD8^+ T-cells (setting [4]) is 0. As for “ALVYFLQSI [SARS-COV-2 peptide of the ABF cohort data]”, the LFC in the data set with CD8^+ T-cells (setting [5]) is recorded as 0. Regarding “AMDEFIERY [SARS-COV-2 peptide of the ABF cohort data]”, the LFC with CD8^+ T-cells (setting [4]) is listed as 0.

Regarding “ANPKTPKYKF [SARS-COV-2 peptide of the ABF cohort data]”, the LFC in the data set with CD8^+ T-cells (setting [5]) is 0. As for “APFLYLYAL [SARS-COV-2 peptide of the ABF cohort data]”, in the data set on CD8^+ T-cells (setting [5]), the LFC is 0. On to “APHGVVFL [SARS-COV-2 peptide of the ABF cohort data]”, for which the LFC with CD8^+ T-cells (setting [5]) was 0. “APHGVVFLHV [SARS-COV-2 peptide of the ABF cohort data]”: the LFC in the data set on CD8^+ T-cells (setting [5]) is given as 0. “APISAMVRM [SARS-COV-2 peptide of the ABF cohort data]”: the LFC in the data set with CD8^+ T-cells (setting [4]) is 0. With “APKEIIFL [SARS-COV-2 peptide of the ABF cohort data]”, the LFC with CD8^+ T-cells (setting [4]) is 0. For the molecule AYILFTRFFYV, the Hits in data set [1] (setting [7]) was 3; in data set [1] (setting [6]), 1.

The molecule BLTP2 had a Relative expression in data set [2] of 95. Take DLFMRIFTI: the Hits in data set [1] (setting [7]) is 1. Take ELIRQGTDY: in data set [1] (setting [7]), the Hits is 2. In the case of FAYANRNRF, the Hits in data set [1] (setting [7]) is reported as 1.

As for FCNDPFLGVY, the Hits in data set [1] (setting [7]) is given as 1. On to FEYVSQPFL, for which the Hits in data set [1] (setting [7]) was 1. On to “FTSSRMSSFNRHMKTHTSEK [CTCFL long-peptide personal vaccine of the breast cancer patient]”, for which the ELISpot in data set [3] was determined as 48 Spots/10^6 PBMC. Turning to “Fluoresc-EEKEIIVIKDTEKKDQS-RRRRRRRR-SQFNVPMLY-NH2 (fluorescein-EEKEIIVIKDTEKKDQSRRRRRRRRSQFNVPMLY-NH2) [AKAP-4-specific Personalized Vaccine, AKAP-4-specific VERDI Vaccine]”, the “cells taking up the vaccine” value in the data set with HeLa cells (HeLa cells) is 45%. Besides, the “cellular uptake (intensity of fluorescence) compared to control” value in the data set with HeLa cells is listed as “significantly higher uptake”. Consider “Fluoresc-THVDIRTLEDLLMGTL-RRRRRRRR-RAHYNIVTF-NH2 (fluorescein-THVDIRTLEDLLMGTLRRRRRRRRRAHYNIVTF-NH2) [HPV-specific Personalized Vaccine, E7 (HPV16)-specific VERDI Vaccine]”, for which the “more peptide accumulated in each cell compared to the control vaccines (median fluorescence intensity)” value with HeLa cells (HeLa cells) is reported as “approximately 30%”. In addition, the “cells taking up the vaccine” value in the data set on HeLa cells (HeLa cells) is reported as “more than 50%”; in the data set with HeLa cells (HeLa cells, listed as HPV-specific vaccine), 53%. The “cellular uptake (intensity of fluorescence) compared to control” value in the data set on HeLa cells is listed as “significantly higher uptake”.

Regarding IELSLIDFYL, in data set [1] (setting [7]), the Hits is 4.

For the molecule ITLATCELY, the Hits in data set [1] (setting [7]) is 12; in data set [1] (setting [6]) it was 1. Turning to KEIIFLEGETL, the Hits in data set [1] (setting [6]) was 1. In data set [3], “NEQDLVREEAQKMSSLLPTM [SPAG9 long-peptide personal vaccine of the breast cancer patient]” had an ELISpot of 0 Spots/10^6 PBMC. Consider NVFAFPFTIY, for which the Hits in data set [1] (setting [6]) is on record as 19. For the molecule “QEESFSPTAMDAIFGSLSDE [MAGEAA long-peptide personal vaccine of the breast cancer patient]”, the ELISpot in data set [3] is recorded as 0 Spots/10^6 PBMC.

In turn, “RLDQLLRHVMNPLETLSITN [PRAME long-peptide personal vaccine of the breast cancer patient]” showed an ELISpot in data set [3] of 66 Spots/10^6 PBMC. The molecule “SDTKDYFMSKTLGIGRLKRP [FSIP1 long-peptide personal vaccine of the breast cancer patient]” gave an ELISpot in data set [3] of 257 Spots/10^6 PBMC.

Molecule “SGSSYFVLANGHILPNSENA [FMRINB long-peptide personal vaccine of the breast cancer patient]” came in with an ELISpot in data set [3] of 130 Spots/10^6 PBMC. On to SVLLFLAFV, for which the Hits in data set [1] (setting [6]) is 5.

“SVYADQVNIDYLMNRPQNLR [AKAP4 long-peptide personal vaccine of the breast cancer patient]” had an ELISpot in data set [3] of 366 Spots/10^6 PBMC. In addition, in data set [3] (breast cancer patient), the “T cell responses (ELISPOT)” value was 366 spots/million cells. Consider “TLPPAWQPFLKDHRISTFKN [BIRC5 long-peptide personal vaccine of the breast cancer patient]”, for which, in data set [3], the ELISpot is recorded as 71 Spots/10^6 PBMC. On to VASQSIIAY, for which the Hits in data set [1] (setting [7]) is listed as 23; in data set [1] (setting [6]) it was 4. In the case of VVFLHVTYV, the Hits in data set [1] (setting [7]) is reported as 1; in data set [1] (setting [6]), 8. The molecule WT1 displayed a Relative expression in data set [2] of 59.

B1: SPAG9 (protein, UniProt O60271 1-1321, looked up)
C-Jun-amino-terminal …: MELEDGVVYQEEPGGSGAVMSERVSGLAGSIYREFERLIGRYDEEVVKELMPLVVAVLENLDSVFAQDQEHQVELELLRDDNEQLITQYEREKALRKHAEEKFIEFEDSQEQEKKDLQTRVESLESQTRQLELKAKNYADQISRLEEREAELKKEYNALHQRHTEMIHNYMEHLERTKLHQLSGSDQLESTAHSRIRKERPISLGIFPLPAGDGLLTPDAQKGGETPGSEQWKFQELSQPRSHTSLKVSNSPEPQKAVEQEDELSDVSQGGSKATTPASTANSDVATIPTDTPLKEENEGFVKVTDAPNKSEISKHIEVQVAQETRNVSTGSAENEEKSEVQAIIESTPELDMDKDLSGYKGSSTPTKGIENKAFDRNTESLFEELSSAGSGLIGDVDEGADLLGMGREVENLILENTQLLETKNALNIVKNDLIAKVDELTCEKDVLQGELEAVKQAKLKLEEKNRELEEELRKARAEAEDARQKAKDDDDSDIPTAQRKRFTRVEMARVLMERNQYKERLMELQEAVRWTEMIRASRENPAMQEKKRSSIWQFFSRLFSSSSNTTKKPEPPVNLKYNAPTSHVTPSVKKRSSTLSQLPGDKSKAFDFLSEETEASLASRREQKREQYRQVKAHVQKEDGRVQAFGWSLPQKYKQVTNGQGENKMKNLPVPVYLRPLDEKDTSMKLWCAVGVNLSGGKTRDGGSVVGASVFYKDVAGLDTEGSKQRSASQSSLDKLDQELKEQQKELKNQEELSSLVWICTSTHSATKVLIIDAVQPGNILDSFTVCNSHVLCIASVPGARETDYPAGEDLSESGQVDKASLCGSMTSNSSAETDSLLGGITVVGCSAEGVTGAATSPSTNGASPVMDKPPEMEAENSEVDENVPTAEEATEATEGNAGSAEDTVDISQTGVYTEHVFTDPLGVQIPEDLSPVYQSSNDSDAYKDQISVLPNEQDLVREEAQKMSSLLPTMWLGAQNGCLYVHSSVAQWRKCLHSIKLKDSILSIVHVKGIVLVALADGTLAIFHRGVDGQWDLSNYHLLDLGRPHHSIRCMTVVHDKVWCGYRNKIYVVQPKAMKIEKSFDAHPRKESQVRQLAWVGDGVWVSIRLDSTLRLYHAHTYQHLQDVDIEPYVSKMLGTGKLGFSFVRITALMVSCNRLWVGTGNGVIISIPLTETNKTSGVPGNRPGSVIRVYGDENSDKVTPGTFIPYCSMAHAQLCFHGHRDAVKFFVAVPGQVISPQSSSSGTDLTGDKAGPSAQEPGSQTPLKSMLVISGGEGYIDFRMGDEGGESELLGEDLPLEPSVTKAERSHLIVWQVMYGNE
The molecule B1 registered a Relative expression in data set [2] of 70.

The values above are taken from US20260188423A1, “IDENTIFICATION OF CELL SURFACE ANTIGENS WHICH INDUCE T-CELL RESPONSES AND THEIR USES” (priority 2022, published 2026).
